From US10206905B2, “Use of composition for preparing a medicament for treatment of amyotrophic lateral sclerosis” (priority 2015, dated 2019)
Marks after values point to notes of the source that are not given here.

How the values were obtained:
SOD1-G93A mice [1] = assay: Onset time and survival time of SOD1-G93A mice (Example 1); format: in vivo; conditions: for Survival Time Extension: i.p. once a day from age 70 d, versus SOD1-G93A control; for Onset Time / Survival Time: i.p. once a day from age 70 d until death
Description: (§1) The transgenic mice (B6SJL-TgN[SOD1-G93A] 1Gur) carrying humanized copper/zinc superoxide dismutase (SOD1) (G93A mutants) and wild-type B6SJL F1 mice are purchased from Nanjing University. The breed conversation and propagation methods of the mice: one wild-type female mouse and one transgenic male mouse are allowed to mate with each other, with their progeny identified through polymerase chain reaction (PCR) with DNA extracted from the tail of young mice.
5 B6SJL-TgN(SOD1-G93A)1Gur male mice were allowed to mate with B6SJLF1 female healthy mice in a ratio of 1 male to 3 females beginning at the age of 60 d. DNA was extracted from the progeny mice tail-cutting (as required in the kits), plus SOD1 primers 5′ -[…]-3 ′ and 5 ′ -[…] AAGTGA-3 ′ were amplified through 30 PCR cycles, confirming SOD1 gene strips between 200˜300bp. Mice without SOD1 mutant gene were eliminated.
(§2) Calculated based on the effective doses of edaravone (SOD1-G93Amousel5 mg/kg, SOD1-H46R rat 3-6mg/kg) and those on cerebral ischemic animal models (SD rat 6 mg/kg) according to the literature, the dosage of edaravone was set at 12 mg/kg, then the dosage of the composition of edaravone and borneol was set at 15 mg/kg (the dosage of edaravone was set at 12 mg/kg, borneol was 3 mg/kg), and borneol was set at 3 mg/kg.
(§3) SOD1 genetic mutant mice at the age of 70 d were divided randomly into 4 groups according to their motor functions. Respectively: the SOD1 genetic mutation control group; the treating group of the composition of edaravone and borneol at 15 mg/kg; the treating group of edaravone at 12 mg/kg; the treating group of borneol at 3 mg/kg; another B6SJL healthy mice control group without SOD lgenetic mutation was additionally set. There was 14 mice each group, half of males and half of females.
From the day of grouping, animals in each group were dosed by intraperitoneal injection once a day, until death. Animals in the healthy control group and the SOD1 genetic mutation control group were given saline of equal volumes.
It was determined as muscle strength decline when the time of the mice keeping on the rotarod decreased by over 30% compared with the former time determined. The onset time of the mice was determined according to the variation of this motor function and the observation of the anterior limbs of the mice with or without tremor. When the mice have lain on their backs on smooth planes for 30 s and cannot righting reflex, or there was serious infection in one or both eyes, then the mice may be judged as death and sacrificed. The time from birth to death of a mouse was the survival time of the mouse.
It was assessed whether there was a synergistic effect between edaravone and borneol in the composition according to the Jong-eun's formula, q=E(a+b)/(Ea+Eb−Ea×Eb). In the formula, E(a+b) is the effective rate of the combined drugs, Ea, Eb is the effective rate of A drug, B drug used alone, respectively. If q value was in the range of 0.85˜1.15, indicating the sum of the combined two drugs; q value >1.15 indicating enhancement, and q value <0.85 indicating there was an antagonistic effect when two drugs were used together.

SOD1-G93A mice [2] = assay: Passive avoidance test of learning and memory in SOD1-G93A mice (Example 2); format: in vivo; conditions: memory experiment; for Latency period after entering the dark room versus model group: age about 90 d, FIG. 2; for Number of step-through errors versus model group: FIG. 3
Description: as §1, with “(G93A mutants)and” for “(G93A mutants) and”, “mouse were” for “mouse are”
as §2, with “(SOD1-G93Amouse 15” for “(SOD1-G93Amousel5”, “3-6 mg/kg)” for “3-6mg/kg)”
as §3, with “SOD1 genetic” for “SOD lgenetic”
From the day of grouping, animals in each group were dosed by intraperitoneal injection once a day, until the behavior test has been completed. Animals in the healthy control group and the SOD1 genetic mutation control group were given saline of equal volumes.
The passive avoidance test was performed when the animals were at the age of about 90 d to determine their abilities of learning and memory. The experimental device was divided into two rooms, bright and dark. […] The mice were placed into the bright room with face back to the hole in the test, the timer was initiated at the same time, and the animals entered the dark room through passing the hole, subjecting to the electric shock (0.19 mA), the recorded time was the latency period, meanwhile recording the number of step-through errors in 5 min after the mice got into the dark room. The memory experiment was carried out on the third day, the time from placing each mouse into the bright room to entering the dark room was recorded, if the mouse didn't enter the dark room in 5 min, then the latency period was recorded as 300s, meanwhile recording the number of step-through errors in 5 min after the mice got into the dark room.
It was assessed whether there was a synergistic effect between edaravone and borneol in the composition according to the Jong-eun's formula, q=E(a+b)/(Ea+Eb−Ea×Eb). […]

SOD1-G93A mice [3] = assay: Rota-rod motor function of SOD1-G93A mice (Example 1); format: in vivo; conditions: p<0.05, FIG. 1
Method: According to the methods reported in literatures, mice were placed on the Rota-rod (60 Hz/min, Φ190 mm), and the time from being placed on the Rota-rod to dropping was recorded. Each mouse was determined for 3 times at each time point, with the longest time of mouse keeping on the rotating rod reflecting the motor function of the mouse, the determination was stopped if the time was over 180s, calculated as 180s. The motor functions of the mice with SOD1 mutant gene were determined beginning at the age of 60 d. Thereafter, they were observed and determined every 10 days, until death.
as §2
SOD1 genetic mutant mice at the age of 70 d were divided randomly into 4 groups according to their motor functions. […]

mutant SOD1 G93A mice = conditions: cited from earlier work
SOD1-G93A mice [4] = assay: Motor function scores of SOD1-G93A mice (Example 3); format: in vivo; conditions: p<0.05, FIG. 5
SOD1-G93A mice [5] = assay: Rotarod test drop time of SOD1-G93A mice (Example 3); format: in vivo; conditions: p<0.05, FIG. 6
SOD1-H46R rat = conditions: according to the literature; cited from earlier work
[6] = tested on: amyotrophic lateral sclerosis; conditions: clinical phase-III study NCT00330681; primary endpoint not reached; cited from earlier work
[7] = tested on: cerebral ischemic animal models; conditions: SD rat, according to the literature; cited from earlier work
SOD1-G93A mice [8] = assay: Onset time and survival time of SOD1-G93A mice (Example 3); format: in vivo
Method: The transgenic mice with amyotrophic lateral sclerosis (B 6 SJL-Tg(SOD1*G93A)1Gur/JNj u, hereinafter referred to as SOD1-G93 A mice) and the wild-type control mice were purchased from Nanjing Biomedical Research Institute of Nanjing University.
Dosing to animals was initiated from the age of 10 weeks, keeping on the whole survival period. Each dosage of the composition and the positive drug edaravone group was dosed by intraperitoneal injection once a day. […] Animals in the wild control group and the model group were given the corresponding volumes of solvents by intraperitoneal injection.
From the age of 10 weeks, the body weight, the motor function (motor ability score, rotarod test) of animals had been monitored once a week. Two consecutive rod droppings in the animal rotarod test had been considered as the sign of the onset of animal diseases. It was defined as the end of a disease to euthanasia when the animal cannot get righting in 30 seconds after being laid on one side.
The body weight, the motor ability score, the variation of the rod drop latency period with the time in the rotarod test, the onset time, and the survival time were considered as the indexes of observing the disease progress.

SOD1-G93A mice [9] = assay: Body weight of SOD1-G93A mice (Example 3); format: in vivo; conditions: 100 μg/ml in drinking water; age 21 weeks; p<0.05; FIG. 4
[10] = 15 mg/kg/d i.p. once a day from age 10 weeks, mean ± standard error
[11] = 100 μg/ml in drinking water, age 16-21 weeks

CC1(C)C2CCC1(C)C(O)C2 (stereo not shown) [Borneol, 2-camphol]
Effect on the survival time versus model group (SOD1-G93A mice [1]; 3 mg/kg/d i.p. from age 70 d): no statistical difference compared with the model group
Survival Time Extension (SOD1-G93A mice [1]; 3 mg/kg/d): 2.9 days
Onset Time (SOD1-G93A mice [1]; 3 mg/kg/d): 113.1 ± 2.5 days
Survival Time (SOD1-G93A mice [1]; 3 mg/kg/d): 141.3 ± 3.6 days
Survival Time (SOD1-G93A mice [1]; 3 mg/kg/d, listed as borneol): 141.3 ± 3.6 days
Latency period after entering the dark room versus model group (SOD1-G93A mice [2]; 3 mg/kg/d i.p. from 70 d): not obvious
Number of step-through errors versus model group (SOD1-G93A mice [2]; 3 mg/kg/d i.p.): not obvious
Rotarod time versus model group (SOD1-G93A mice [3]; 3 mg/kg/d i.p., only at age 130 d): different significantly from the model group

CC1=NN(c2ccccc2)C(=O)C1 [Edaravone, 3-methyl-1-phenyl-2-pyrazolin-5-one]
Effect on the survival time versus model group (SOD1-G93A mice [1]; 12 mg/kg/d i.p. from age 70 d): extending the survival time of the mice significantly
Influence on the onset time of the mice (SOD1-G93A mice [1]; 12 mg/kg/d i.p. from age 70 d): no influence on the onset time
Survival Time Extension (SOD1-G93A mice [1]; 12 mg/kg/d): 6.2 days
Onset Time (SOD1-G93A mice [1]; 12 mg/kg/d): 113.7 ± 2.6 days
Survival Time (SOD1-G93A mice [1]; 12 mg/kg/d): 144.6 ± 3.7 days
Survival Time (SOD1-G93A mice [1]; 12 mg/kg/d, listed as edaravone): 144.6 ± 3.7 days
Progression of the symptoms and degeneration of neuron (mutant SOD1 G93A mice; Exp Neurol. 2008, 213(2):448-55): capable of slowing the progression of the symptoms
Effective dose (mutant SOD1 G93A mice; SOD1-G93A mouse, according to the literature): 15 mg/kg
Motor function scores versus model group (SOD1-G93A mice [4]; 15 mg/kg/d i.p., age 17, 20, 21 weeks): significantly higher than in the model group
Drop time in the rotarod test versus model group (SOD1-G93A mice [5]; 15 mg/kg/d i.p., age 16, 19, 20, 21 weeks): markedly longer than in the model group
Effective dose (SOD1-H46R rat): 3 to 6 mg/kg
ALSFRS-R score versus placebo group [6]: decreased less than the placebo group, there was no significant difference
Effective dose [7]: 6 mg/kg
Latency period after entering the dark room versus model group (SOD1-G93A mice [2]; 12 mg/kg/d i.p. from 70 d, p<0.05): extended significantly
Number of step-through errors versus model group (SOD1-G93A mice [2]; 12 mg/kg/d i.p., p<0.05): decreased significantly
Rotarod time (muscle strength, motor function) versus model control group (SOD1-G93A mice [3]; 12 mg/kg/d i.p., age 110, 120, 130 d): significantly slow the decline of the muscle strength
Onset Time (SOD1-G93A mice [8]; [10]): 111.3 ± 10.0 days
Survival Time (SOD1-G93A mice [8]; [10]): 151.7 ± 9.7* d
Survival Time Extension (SOD1-G93A mice [8]; 15 mg/kg/d i.p., versus SOD1-G93A control): 9.4 days

Nc1nc2ccc(OC(F)(F)F)cc2s1 [Riluzole]
Motor function scores versus model group (SOD1-G93A mice [4]; [11]): significantly higher than in the model group
Drop time in the rotarod test versus model group (SOD1-G93A mice [5]; [11]): longer than in the model group markedly
Onset Time (SOD1-G93A mice [8]; 100 μg/ml in drinking water from age 10 weeks, mean ± standard error): 109.2 ± 9.4 days
Weight of animals versus model control group (SOD1-G93A mice [9]): significantly higher than in the model control group
